In brackets after ≈: the same amount, converted by molar mass. Read-outs that look alike come from different tables or passages of the source.
Experiments:
[1] = test system: MRSA ATCC 43300; assay: MIC and MBC determination (broth microdilution); assay type: cell-based; conditions: Staphylococcus aureus; for MIC: first value of MIC/MBC cell; for MBC: second value of MIC/MBC cell
Experimental: (§1) The MIC values of Z33 against MRSA ATCC 43300 and S. aureus clinical isolates were measured according to the broth microdilution guidelines provided by the Clinical and Laboratory Standards Institute (CLSI). S. aureus ATCC 29213 was used as the quality control strain, and the quality control range was referred to the CLSI. The MIC value is defined as the lowest concentration of the compounds with no visible growth of bacteria. The MIC assay was independently repeated three times.
(§2) The MBC values of antibacterial agents were measured after incubation at 37 °C for 24 h. Briefly, 100 µL of bacterial solution from the three wells behind the corresponding well of MIC was absorbed and spread on the Mueller–Hinton Agar (MHA). The MBC refers to the lowest concentration corresponding to the amount of colony-forming unit (CFU) ≤ 5 on the medium after 18~24 h of incubation at 37 °C.

[2] = test system: S. aureus ATCC 29213; assay: MIC and MBC determination (broth microdilution); assay type: cell-based; conditions: Staphylococcus aureus; for MIC: ATCC29213, first value of cell; for MBC: ATCC29213, second value of cell
Experimental: as §1, §2

[3] = test system: S. aureus clinical strain 144; assay: MIC and MBC determination (broth microdilution); assay type: cell-based; conditions: Staphylococcus aureus; for MIC: first value of cell; for MBC: second value of cell
Experimental: as §1, §2

[4] = test system: S. aureus clinical strain AD3; assay: MIC and MBC determination (broth microdilution); assay type: cell-based; conditions: Staphylococcus aureus; for MIC: first value of cell; for MBC: second value of cell
Experimental: as §1, §2

[5] = target: T1, CYP3A4 (Homo sapiens, UniProt P08684); assay: CYP450 inhibition assay, human liver microsomes, testosterone probe; assay type: in vitro ADME
T1 construct: 40 µL of the human liver microsomal enzyme (final concentration is 0.5 g/L); tissue Research Institute for Liver Diseases Co., Ltd. (Shanghai, China); host or cells: human liver microsomes
Experimental: (§3) The inhibition effect of Z33 and tiamulin on the human liver microsomal enzyme was determined as described in the literature with some modifications. Experiments were performed in 96-well plates with a final incubation volume of 100 μL per well. 40 µL of the human liver microsomal enzyme (final concentration is 0.5 g/L), 20 µL of probe substrate (final concentration of testosterone and chlorzoxazone is 20 µmol/L), and 20 µL of test drug were mixed in each well. After preincubation at 37 °C for 5 min, the reactions were started by the addition of 20 μL of NADPH (final concentration is 1 mmol/L). Depending on the substrate, the chlorzoxazone and testosterone groups were incubated at 37 °C for 25 min and 10 min, respectively. The reaction was terminated by adding 100 µL of acetonitrile, and then the supernatant was centrifuged to analyse by LC-MS/MS.

[6] = test system: RAW264.7 cells; assay: Cytotoxicity test (MTT assay); assay type: cell-based; conditions: concentrations less than 5 μg/mL, 24 h, MTT
Experimental: (§4) To assess the effects of tiamulin and Z33 on the viability of RAW264.7 macrophages, the MTT assay was performed according to previous reports. […] After discarding the MTT solution, DMSO (150 μL) was added to each well to dissolve all crystals. OD490nm was recorded using EnSight Multimode Plate Reader (PerkinElmer, […], USA).

[7] = Cytotoxicity test (MTT assay); assay type: cell-based; conditions: mouse, RAW264.7 macrophages, RAW264.7, MTT, tested up to 20 μg/mL
Experimental: as §4

[8] = test system: MRSA ATCC 43300; assay: Determination of MPC (mutant prevention concentration); assay type: cell-based, Staphylococcus aureus
Experimental: (§5) The drug-resistant tendency suppression potential of Z33 and tiamulin was determined as described with minor modifications. In the test, for each S. aureus strain, 4 mL of overnight cultures were inoculated into 100 mL of fresh BHI broth and then incubated for 4.5 h at 37 °C with shaking (210 rpm). Cultures were centrifuged at 5000 r/min for 10 min. The supernatant was discarded and resuspended in the 4 mL of saline to achieve a bacterial density of ~3 × 10^10 CFU/mL. In total, 100 μL of each culture was spread onto MHA containing various concentrations of Z33 and tiamulin. […] Plates were incubated at 37 °C for a total of 72 h and recorded every 24 h for the appearance of colonies. MPC was defined as the lowest concentration with no growth of colonies on the agar plate. MPC was carried out in triplicate.

[9] = test system: S. aureus ATCC 29213; assay: as above; assay type: cell-based, Staphylococcus aureus
Experimental: as §5

[10] = test system: S. aureus clinical strain 144; assay: as above; assay type: cell-based, Staphylococcus aureus
Experimental: as §5

[11] = test system: S. aureus clinical strain AD3; assay: as above; assay type: cell-based, Staphylococcus aureus
Experimental: as §5

[12] = test system: four S. aureus strains; assay: microbe, parasite or virus in culture; assay type: cell-based, Staphylococcus aureus
Experimental: To assess the propensity for the development of bacterial resistance, the ability of Z33 and tiamulin to induce resistance to four strains were tested, respectively. Serial passages at 37 °C were performed daily in BHI broth containing sub-MIC concentration (1/4 MIC) of Z33 and tiamulin. The MIC values were daily determined and recorded by the broth microdilution method. A duration of 13 passages was performed in every case.

[13] = target: T2, CYP2E1 (Homo sapiens, UniProt P05181); assay: CYP450 inhibition assay, human liver microsomes, chlorzoxazone probe; assay type: in vitro ADME; conditions: human liver microsomes
T2 construct: 40 µL of the human liver microsomal enzyme (final concentration is 0.5 g/L); tissue Research Institute for Liver Diseases Co., Ltd. (Shanghai, China); host or cells: human liver microsomes
Experimental: as §3

[14] = test system: MRSA ATCC 43300; assay: Neutropenic mouse thigh infection model; assay type: in vivo, mice; conditions: 20 mg/kg intravenous
Experimental: The neutropenic mouse thigh infection model was used to determine the in vivo antibacterial activity of Z33 [23]. Briefly, female mice were rendered neutropenic (neutrophil count ≤ 100/mm^3) via intraperitoneal injection of cyclophosphamide on day 4 (150 mg/kg) and day 1 (100 mg/kg) before infection. MRSA ATCC 43300 cells were collected in the logarithmic phase and resuspended in 0.9% saline. The thigh infection model was established by injection of 100 μL of MRSA suspension (10^7 CFU/mL) into the posterior thighs of mice. After 2 h post-infection, mice were intravenously injected with tiamulin and Z33 at a dose of 20 mg/kg, and the untreated groups were administrated with an equal amount of saline. Mice were euthanized after treatment of 22 h, thigh tissue was aseptically collected, weighed, homogenized, and serially diluted in saline, respectively. CFU counts were determined by the flat colony counting method.

T2 sequence (P05181 whole entry): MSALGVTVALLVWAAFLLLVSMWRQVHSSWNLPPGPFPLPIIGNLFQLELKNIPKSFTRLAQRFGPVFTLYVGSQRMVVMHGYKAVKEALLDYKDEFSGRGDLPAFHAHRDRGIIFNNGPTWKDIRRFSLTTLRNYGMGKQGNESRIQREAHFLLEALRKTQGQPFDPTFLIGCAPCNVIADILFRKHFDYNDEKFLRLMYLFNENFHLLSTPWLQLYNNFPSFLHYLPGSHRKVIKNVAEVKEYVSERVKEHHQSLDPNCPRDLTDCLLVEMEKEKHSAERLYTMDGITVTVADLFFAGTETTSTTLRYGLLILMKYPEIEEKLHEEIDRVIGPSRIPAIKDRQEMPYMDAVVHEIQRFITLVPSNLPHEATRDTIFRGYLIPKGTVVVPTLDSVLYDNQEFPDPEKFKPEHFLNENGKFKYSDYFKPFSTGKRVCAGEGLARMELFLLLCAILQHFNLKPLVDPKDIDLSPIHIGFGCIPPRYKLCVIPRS
T1 sequence (P08684 whole entry): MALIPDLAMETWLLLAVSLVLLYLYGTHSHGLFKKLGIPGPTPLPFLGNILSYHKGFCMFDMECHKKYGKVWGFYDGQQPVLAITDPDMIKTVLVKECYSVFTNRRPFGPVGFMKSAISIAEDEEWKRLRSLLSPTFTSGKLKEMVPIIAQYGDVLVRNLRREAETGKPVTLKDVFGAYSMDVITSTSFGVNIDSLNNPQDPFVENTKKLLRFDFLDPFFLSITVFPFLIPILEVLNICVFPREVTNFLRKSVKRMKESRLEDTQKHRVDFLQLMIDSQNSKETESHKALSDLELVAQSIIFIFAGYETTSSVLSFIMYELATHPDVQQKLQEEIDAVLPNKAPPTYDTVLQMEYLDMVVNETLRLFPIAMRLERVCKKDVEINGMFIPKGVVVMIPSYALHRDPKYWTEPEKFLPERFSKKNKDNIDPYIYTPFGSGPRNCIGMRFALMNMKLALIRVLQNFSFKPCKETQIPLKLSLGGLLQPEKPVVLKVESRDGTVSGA

SMILES | MIC [1] [µg/mL] | MBC [1] [µg/mL] | MIC [2] [µg/mL] | MBC [2] [µg/mL] | MIC [3] [µg/mL] | MBC [3] [µg/mL] | MIC [4] [µg/mL] | MBC [4] [µg/mL] | further results
C=C[C@]1(C)C[C@@H](OC(=O)CSCCN(CC)CC)[C@]2(C)[C@H](C)CC[C@]3(CCC(=O)[C@H]32)[C@@H](C)[C@@H]1O [tiamulin, reference compound] | 0.5 (≈ 1.01 µM) | 1 (≈ 2.03 µM) | 0.5 (≈ 1.01 µM) | 1 (≈ 2.03 µM) | 0.5 (≈ 1.01 µM) | 2 (≈ 4.05 µM) | 1 (≈ 2.03 µM) | 2 (≈ 4.05 µM) | IC50 [5]: 1600 nM; cytotoxicity on RAW264.7 cells [6]: No significant cytotoxicity; IC50 at 24 h [7]: ≥ 20 µg/mL; MPC [8]: 1 µg/mL; MPC [9]: 1 µg/mL; MPC [10]: 1 µg/mL; MPC [11]: 2 µg/mL; MIC ([12]; Staphylococcus aureus, read-out: MICs of resistant clones): 2 to 8 µg/mL (≈ 4.05 to 16.2 µM); fold increase in MICs ([12]; after 13 passages): ~32 fold; passages after which resistance developed (≥ 4-fold MIC increase) ([12]; four S. aureus strains): 3 passages; IC50 ([13]; Figure 6, read-out: IC50 CYP2E1 (value in plot key)): 184 nM; IC50 ([13]; bound given in text, read-out: IC50 CYP2E1): < 250 nM; MRSA inoculum in the thigh muscle ([14]; after treatment for 24 h): 7.655 ± 0.067 log10 CFU/g; reduction of bacterial load in the thigh muscle ([14]; versus untreated group): 0.771 log10 CFU/g
C=C[C@]1(C)C[C@@H](OC(=O)CSC(C)(C)CNC(=O)[C@H](N)C(C)C)[C@]2(C)[C@H](C)CC[C@]3(CCC(=O)[C@H]32)[C@@H](C)[C@@H]1O [valnemulin] | 0.125 (≈ 0.221 µM) | 0.125 (≈ 0.221 µM) | 0.125 (≈ 0.221 µM) | 0.125 (≈ 0.221 µM) | 0.125 (≈ 0.221 µM) | 0.25 (≈ 0.443 µM) | 0.125 (≈ 0.221 µM) | 0.125 (≈ 0.221 µM) | –
